Test results: PubChem BioAssay (NCI)
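Each compound was tested at five concentrations against cells in 96-well plates for 48 hours. GI50 marks 50% less growth. At the TGI there is no net growth.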

Legend:
Assay in all cases: NCI tumour cell line growth inhibition, 48 h
[1] = tested on: 786-0 renal
[2] = tested on: A498 renal
[3] = tested on: A549 NSCLC
[4] = tested on: ACHN renal
[5] = tested on: CAKI-1 renal
[6] = tested on: CCRF-CEM leukemia
[7] = tested on: DLD-1 colon
[8] = tested on: DMS 273 small cell lung
[9] = tested on: HCT-116 colon
[10] = tested on: HL-60(TB) leukemia
[11] = tested on: HOP-18 NSCLC
[12] = tested on: HOP-62 NSCLC
[13] = tested on: HOP-92 NSCLC
[14] = tested on: IGROV1 ovarian
[15] = tested on: K-562 leukemia
[16] = tested on: M14 melanoma
[17] = tested on: M19-MEL melanoma
[18] = tested on: MALME-3M melanoma
[19] = tested on: MOLT-4 leukemia
[20] = tested on: NCI-H23 lung
[21] = tested on: NCI-H522 lung
[22] = tested on: OVCAR-4 ovarian
[23] = tested on: RPMI-8226 leukemia
[24] = tested on: SF-539 CNS
[25] = tested on: SK-MEL-28 melanoma
[26] = tested on: SK-MEL-5 melanoma
[27] = tested on: SNB-19 CNS
[28] = tested on: SNB-75 CNS
[29] = tested on: SNB-78 CNS
[30] = tested on: SR leukemia
[31] = tested on: SW-620 colon
[32] = tested on: TK-10 renal
[33] = tested on: UACC-257 melanoma
[34] = tested on: UACC-62 melanoma
[35] = tested on: UO-31 renal
[36] = tested on: BT-549 breast
[37] = tested on: COLO 205 colon
[38] = tested on: DU-145 prostate
[39] = tested on: EKVX NSCLC
[40] = tested on: HCC-2998 colon
[41] = tested on: HCT-15 colon
[42] = tested on: HS 578T breast
[43] = tested on: HT29 colon
[44] = tested on: KM12 colon
[45] = tested on: KM20L2 colon
[46] = tested on: LOX IMVI melanoma
[47] = tested on: LXFL 529 NSCLC
[48] = tested on: MCF7 breast
[49] = tested on: MDA-MB-231 breast
[50] = tested on: MDA-MB-435
[51] = tested on: NCI-H226 lung
[52] = tested on: NCI-H460 lung
[53] = tested on: OVCAR-3 ovarian
[54] = tested on: OVCAR-5 ovarian
[55] = tested on: OVCAR-8 ovarian
[56] = tested on: PC-3 prostate
[57] = tested on: RXF 393 renal
[58] = tested on: SF-268 CNS
[59] = tested on: SF-295 CNS
[60] = tested on: SK-MEL-2 melanoma
[61] = tested on: SK-OV-3 ovarian
[62] = tested on: SN12C renal
[63] = tested on: T-47D breast
[64] = tested on: U251 CNS

O=C1C(C(Nc2ccccc2)c2ccccc2)=C([O-])c2ccccc21.O=C1C(C(Nc2ccccc2)c2ccccc2)=C([O-])c2ccccc21.[Co+2] (stereo not given)
GI50 [1]: 7.11 µM | TGI [1]: > 100 µM | GI50 [2]: 5.13 µM | TGI [2]: > 100 µM | GI50 [3]: 4.2 µM | TGI [3]: > 100 µM | GI50 [4]: 6.62 µM | TGI [4]: > 100 µM | GI50 [5]: 18.7 µM | TGI [5]: > 100 µM | GI50 [6]: 4.96 µM | TGI [6]: > 100 µM | GI50 [7]: 4.02 µM | TGI [7]: > 100 µM | GI50 [8]: 4.08 µM | TGI [8]: > 100 µM | GI50 [9]: 3.15 µM | TGI [9]: > 100 µM | GI50 [10]: 3.72 µM | TGI [10]: > 100 µM | GI50 [11]: 11.5 µM | TGI [11]: > 100 µM | GI50 [12]: > 100 µM | TGI [12]: > 100 µM | GI50 [13]: 6.92 µM | TGI [13]: > 100 µM | GI50 [14]: 5.6 µM | TGI [14]: > 100 µM | GI50 [15]: 3.2 µM | TGI [15]: > 100 µM | GI50 [16]: 3.86 µM | TGI [16]: > 100 µM | GI50 [17]: 15.2 µM | TGI [17]: > 100 µM | GI50 [18]: 5.48 µM | TGI [18]: > 100 µM | GI50 [19]: 4.04 µM | TGI [19]: > 100 µM | GI50 [20]: 4.3 µM | TGI [20]: > 100 µM | GI50 [21]: 2.31 µM | TGI [21]: 5.43 µM | GI50 [22]: 3.38 µM | TGI [22]: 9.92 µM | GI50 [23]: 2.8 µM | TGI [23]: > 100 µM | GI50 [24]: 3.3 µM | TGI [24]: > 100 µM | GI50 [25]: 5.55 µM | TGI [25]: > 100 µM | GI50 [26]: 3.78 µM | TGI [26]: > 100 µM | GI50 [27]: > 100 µM | TGI [27]: > 100 µM | GI50 [28]: 4.49 µM | TGI [28]: 79.8 µM | GI50 [29]: > 100 µM | TGI [29]: > 100 µM | GI50 [30]: 6.07 µM | TGI [30]: > 100 µM | GI50 [31]: 4.75 µM | TGI [31]: > 100 µM | GI50 [32]: 5.48 µM | TGI [32]: 86 µM | GI50 [33]: 5.04 µM | TGI [33]: 46.4 µM | GI50 [34]: 5.45 µM | TGI [34]: > 100 µM | GI50 [35]: 2.69 µM | TGI [35]: 53.8 µM

Cc1cc(=O)[nH]c(NN2C(Cl)C(=O)C2c2ccc(O)cc2)n1 (stereo not given)
TGI [1]: 18.2 µM | TGI [2]: 21.5 µM | TGI [3]: 31.2 µM | TGI [4]: 22 µM | TGI [36]: 27.1 µM | TGI [5]: 20.4 µM | TGI [37]: 40.7 µM | TGI [8]: 18.1 µM | TGI [38]: 22.8 µM | TGI [39]: 18.3 µM | TGI [40]: 23.3 µM | TGI [9]: 14.3 µM | TGI [41]: 15.4 µM | TGI [10]: 7.69 µM | TGI [11]: 27.8 µM | TGI [12]: 19 µM | TGI [13]: 29.4 µM | TGI [42]: 51.7 µM | TGI [43]: 35.1 µM | TGI [14]: 21.7 µM | TGI [44]: 25 µM | TGI [45]: 46.5 µM | TGI [46]: 7.27 µM | TGI [47]: 22.2 µM | TGI [16]: 24.6 µM | TGI [17]: 23.1 µM | TGI [18]: 30.7 µM | TGI [48]: 27.4 µM | TGI [49]: 30 µM | TGI [50]: 20.5 µM | TGI [19]: > 79.2 µM | TGI [51]: 32.6 µM | TGI [52]: 18.1 µM | TGI [21]: 32.8 µM | TGI [53]: 18.9 µM | TGI [22]: 19 µM | TGI [54]: 35.2 µM | TGI [55]: 28.6 µM | TGI [56]: 26.8 µM | TGI [23]: 5.59 µM | TGI [57]: 17.2 µM | TGI [58]: 32.3 µM | TGI [59]: 21.4 µM | TGI [24]: 24.3 µM | TGI [60]: 29.5 µM | TGI [25]: 24.1 µM | TGI [26]: 21.5 µM | TGI [61]: 23.4 µM | TGI [62]: 23.5 µM | TGI [27]: 23.2 µM | TGI [28]: 7.92 µM | TGI [29]: 24.2 µM | TGI [30]: > 25.6 µM | TGI [31]: 28.9 µM | TGI [63]: 32.2 µM | TGI [32]: 31.7 µM | TGI [64]: 18.4 µM | TGI [33]: 26.1 µM | TGI [34]: 18.7 µM | TGI [35]: 22.4 µM
